Data taken from US10570129B2 (Zoetis Services LLC, priority 2015, dated 2020).

Tests used:
Haemonchus contortus L3 = test: microbe, parasite or virus in culture; type: cell-based; settings: for minimal effective concentration: Haemonchus contortus, 96 h, read-out: HcL3 Minimal Effective Concentration (MEC)
D. immitis microfilariae = test: Dirofilaria immitis, microfilariae (DiMF) in vitro motility assay; type: cell-based; settings: for minimal effective concentration: Dirofilaria immitis, 72 h, read-out: DiMF minimally effective dose (MEC)

Compound	HcL3 Minimal Effective Concentration (MEC) (Haemonchus contortus L3) [µM]	DiMF minimally effective dose (MEC) (D. immitis microfilariae; decrease in microfilariae motility by subjective visual assessment, observed at 72 hours) [µM]	minimal effective concentration (Haemonchus contortus L3) [µM]	minimal effective concentration (D. immitis microfilariae) [µM]
(E)-N-((2-chloropyridin-4-yl)methyl)-2-(3-(3,4-dichlorophenyl)allyl)-8-(pyrrolidin-1-yl)-1,2,3,4-tetrahydro-5H-pyrido[4,3-b]indole-5-carboxamide [Example 507]	10.0	13.5	–	–
O=C(NCc1ccnc(Cl)c1)n1c2c(c3ccc(OC(F)(F)F)cc31)CN(Cc1ccc3nc(Cl)ccc3c1)CC2 [Example 367, N-((2-chloropyridin-4-yl)methyl)-2-((2-chloroquinolin-6-yl)methyl)-7-(trifluoromethoxy)-1,2,3,4-tetrahydro-5H-pyrido[4,3-b]indole-5-carboxamide]	–	–	10	> 100
N#Cc1ccc2c(c1)c1c(n2C(=O)NCc2ccnc(Cl)c2)CCN(C/C=C/c2cc(Br)ccc2F)C1 [Example 78, (E)-2-(3-(5-bromo-2-fluorophenyl)allyl)-N-((2-chloropyridin-4-yl)methyl)-8-cyano-1,2,3,4-tetrahydro-5H-pyrido[4,3-b]indole-5-carboxamide]	–	–	0.6	> 100
N#Cc1ccc2c(c1)c1c(n2C(=O)NCc2ccnc(Cl)c2)CCN(C/C=C/c2c(F)c(F)c(Cl)c(F)c2F)C1 [Example 84, (E)-2-(3-(4-chloro-2,3,5,6-tetrafluorophenyl)allyl)-N-((2-chloropyridin-4-yl)methyl)-8-cyano-1,2,3,4-tetrahydro-5H-pyrido[4,3-b]indole-5-carboxamide]	–	–	0.1	> 100
N#Cc1ccc(/C=C/CN2CCc3c(c4cc(Br)ccc4n3C(=O)NCc3ccnc(F)c3)C2)cc1F [Example 189, (E)-8-bromo-2-(3-(4-cyano-3-fluorophenyl)allyl)-N-((2-fluoropyridin-4-yl)methyl)-1,2,3,4-tetrahydro-5H-pyrido[4,3-b]indole-5-carboxamide]	–	–	0.3	10.4
O=C(NCc1ccnc(Cl)c1)n1c2c(c3ccc(OC(F)(F)F)cc31)CN(C/C=C/c1ccc(C(F)(F)F)cc1)CC2 [Example 362, (E)-N-((2-chloropyridin-4-yl)methyl)-7-(trifluoromethoxy)-2-(3-(4-(trifluoro-methyl)phenyl)allyl)-1,2,3,4-tetrahydro-5H-pyrido[4,3-b]indole-5-carboxamide]	–	–	> 100	31.5
O=C(NCc1ccnc(Cl)c1)n1c2c(c3cc(F)c(Cl)cc31)CN(C/C=C/c1ccc(Cl)c(F)c1)CC2 [Example 297, (E)-7-chloro-2-(3-(4-chloro-3-fluorophenyl)allyl)-N-((2-chloropyridin-4-yl)methyl)-8-fluoro-1,2,3,4-tetrahydro-5H-pyrido[4,3-b]indole-5-carboxamide]	–	–	0.3	> 100
Cc1cccc2c1c1c(n2C(=O)NCc2ccnc(Cl)c2)CCN(C/C=C/c2ccc(F)cc2)C1 [Example 149, (E)-N-((2-chloropyridin-4-yl)methyl)-2-(3-(4-fluorophenyl)allyl)-9-methyl-1,2,3,4-tetrahydro-5H-pyrido[4,3-b]indole-5-carboxamide]	–	–	4.4	10
O=C(NCc1ccnc(F)c1)n1c2c(c3cc(F)c(Cl)cc31)CN(C/C=C/c1ccc(Cl)cc1F)CC2 [Example 310, (E)-7-chloro-2-(3-(4-chloro-2-fluorophenyl)allyl)-8-fluoro-N-((2-fluoropyridin-4-yl)methyl)-1,2,3,4-tetrahydro-5H-pyrido[4,3-b]indole-5-carboxamide]	–	–	1.3	24.5
O=C(NCc1ccnc(F)c1)n1c2c(c3cc(OC(F)(F)F)ccc31)CN(C/C=C/c1ccc(F)c(Cl)c1)CC2 [Example 404, (E)-2-(3-(3-chloro-4-fluorophenyl)allyl)-N-((2-fluoropyridin-4-yl)methyl)-8-(trifluoromethoxy)-1,2,3,4-tetrahydro-5H-pyrido[4,3-b]indole-5-carboxamide]	–	–	1	18.2
Cc1ccc2c(c1)c1c(n2C(=O)NCc2ccnc(Cl)c2)CCN(C/C=C/c2ccc(OC(F)(F)F)cc2)C1 [Example 434, (E)-N-((2-chloropyridin-4-yl)methyl)-8-methyl-2-(3-(4-(trifluoromethoxy)-phenyl)allyl)-1,2,3,4-tetrahydro-5H-pyrido[4,3-b]indole-5-carboxamide]	–	–	3.3	5.7
O=C(NCc1ccnc(Cl)c1)n1c2c(c3cc(OC(F)(F)F)ccc31)CN(C/C=C/c1ccc(Cl)c(Cl)c1)CC2 [Example 392, (E)-N-((2-chloropyridin-4-yl)methyl)-2-(3-(3,4-dichlorophenyl)allyl)-8-(trifluoromethoxy)-1,2,3,4-tetrahydro-5H-pyrido[4,3-b]indole-5-carboxamide]	–	–	1	22.2
Cc1cc2c(cc1Br)c1c(n2C(=O)NCc2ccnc(Cl)c2)CCN(C/C=C/c2ccc(Cl)cc2)C1 [Example 194, (E)-8-bromo-2-(3-(4-chlorophenyl)allyl)-N-((2-chloropyridin-4-yl)methyl)-7-methyl-1,2,3,4-tetrahydro-5H-pyrido[4,3-b]indole-5-carboxamide]	–	–	0.4	5.7
N#Cc1ccc2c(c1)c1c(n2C(=O)NCc2ccnc(F)c2)CCN(C/C=C/c2ccc(F)cc2Cl)C1 [Example 114, (E)-2-(3-(2-chloro-4-fluorophenyl)allyl)-8-cyano-N-((2-fluoropyridin-4-yl)methyl)-1,2,3,4-tetrahydro-5H-pyrido[4,3-b]indole-5-carboxamide]	–	–	0.1	10
CSc1cc2c3c(n(C(=O)NCc4ccnc(Cl)c4)c2cc1C#N)CCN(C/C=C/c1ccc(Cl)cc1)C3 [Example 491, (E)-2-(3-(4-chlorophenyl)allyl)-N-((2-chloropyridin-4-yl)methyl)-7-cyano-8-(methylthio)-1,2,3,4-tetrahydro-5H-pyrido[4,3-b]indole-5-carboxamide]	–	–	1	18.2
CSc1ccc2c(c1)c1c(n2C(=O)NCc2ccnc(Cl)c2)CCN(C/C=C/c2ccc(F)c(F)c2)C1 [Example 446, (E)-N-((2-chloropyridin-4-yl)methyl)-2-(3-(3,4-difluorophenyl)allyl)-8-(methylthio)-1,2,3,4-tetrahydro-5H-pyrido[4,3-b]indole-5-carboxamide]	–	–	0.5	3.3
N#Cc1ccc(/C=C/CN2CCc3c(c4cc(C(F)(F)F)ccc4n3C(=O)NCc3ccnc(F)c3)C2)cc1F [Example 416, (E)-2-(3-(4-cyano-3-fluorophenyl)allyl)-N-((2-fluoropyridin-4-yl)methyl)-8-(trifluoromethyl)-1,2,3,4-tetrahydro-5H-pyrido[4,3-b]indole-5-carboxamide]	–	–	1.8	57.4
O=C(NCc1ccnc(F)c1)n1c2c(c3ccc(Cl)cc31)CN(C/C=C/c1ccc(F)cc1F)CC2 [Example 226, (E)-7-chloro-2-(3-(2,4-difluorophenyl)allyl)-N-((2-fluoropyridin-4-yl)methyl)-1,2,3,4-tetrahydro-5H-pyrido[4,3-b]indole-5-carboxamide]	–	–	> 100	1.8
O=C(NCc1ccnc(Cl)c1)n1c2c(c3ccc(OC(F)(F)F)cc31)CN(C/C=C/c1ccc(C(F)(F)F)cn1)CC2 [Example 342, (E)-N-((2-chloropyridin-4-yl)methyl)-7-(trifluoromethoxy)-2-(3-(5-(trifluoromethyl)pyridin-2-yl)allyl)-1,2,3,4-tetrahydro-5H-pyrido[4,3-b]indole-5-carboxamide]	–	–	1.8	10
O=C(NCc1ccnc(Cl)c1)n1c2c(c3cc(OC(F)(F)F)c(Cl)cc31)CN(C/C=C/c1ccc(Cl)cc1)CC2 [Example 496, (E)-7-chloro-2-(3-(4-chlorophenyl)allyl)-N-((2-chloropyridin-4-yl)methyl)-8-(trifluoromethoxy)-1,2,3,4-tetrahydro-5H-pyrido[4,3-b]indole-5-carboxamide]	–	–	1	5.7
O=C(NCc1ccnc(F)c1)n1c2c(c3cc(OC(F)(F)F)ccc31)CN(C/C=C/c1ccc(Cl)c(F)c1)CC2 [Example 401, (E)-2-(3-(4-chloro-3-fluorophenyl)allyl)-N-((2-fluoropyridin-4-yl)methyl)-8-(trifluoromethoxy)-1,2,3,4-tetrahydro-5H-pyrido[4,3-b]indole-5-carboxamide]	–	–	0.5	18.2
O=C(NCc1ccnc(Cl)c1)n1c2c(c3cc(F)c(Cl)cc31)CN(C/C=C/c1ccc(F)c(F)c1)CC2 [Example 300, (E)-7-chloro-N-((2-chloropyridin-4-yl)methyl)-2-(3-(3,4-difluorophenyl)-allyl)-8-fluoro-1,2,3,4-tetrahydro-5H-pyrido[4,3-b]indole-5-carboxamide]	–	–	0.5	10
O=C(NCc1ccnc(Cl)c1)n1c2c(c3cc(F)ccc31)CN(C/C=C/c1ccc(Cl)c(Cl)c1)CC2 [Example 167, (E)-N-((2-chloropyridin-4-yl)methyl)-2-(3-(3,4-dichlorophenyl)allyl)-8-fluoro-1,2,3,4-tetrahydro-5H-pyrido[4,3-b]indole-5-carboxamide]	–	–	0.3	33
O=C(NCc1ccnc(Cl)c1)n1c2c(c3cc(F)c(Cl)cc31)CN(C/C=C/c1cc(F)c(F)c(F)c1)CC2 [Example 301, (E)-7-chloro-N-((2-chloropyridin-4-yl)methyl)-8-fluoro-2-(3-(3,4,5-trifluorophenyl)allyl)-1,2,3,4-tetrahydro-5H-pyrido[4,3-b]indole-5-carboxamide]	–	–	0.2	18.2
